We go through 36 compounds from patent US8815882B2, “Pyrazole aminopyrimidine derivatives as LRRK2 modulators” (Genentech, Inc., priority 2010, dated 2014).

What is called Ki is the dissociation constant of the complex between target and ligand, obtained from inhibition or displacement.

Molecules are shown by their SMILES.

T1 sequence (Q5S007 whole entry G2019S): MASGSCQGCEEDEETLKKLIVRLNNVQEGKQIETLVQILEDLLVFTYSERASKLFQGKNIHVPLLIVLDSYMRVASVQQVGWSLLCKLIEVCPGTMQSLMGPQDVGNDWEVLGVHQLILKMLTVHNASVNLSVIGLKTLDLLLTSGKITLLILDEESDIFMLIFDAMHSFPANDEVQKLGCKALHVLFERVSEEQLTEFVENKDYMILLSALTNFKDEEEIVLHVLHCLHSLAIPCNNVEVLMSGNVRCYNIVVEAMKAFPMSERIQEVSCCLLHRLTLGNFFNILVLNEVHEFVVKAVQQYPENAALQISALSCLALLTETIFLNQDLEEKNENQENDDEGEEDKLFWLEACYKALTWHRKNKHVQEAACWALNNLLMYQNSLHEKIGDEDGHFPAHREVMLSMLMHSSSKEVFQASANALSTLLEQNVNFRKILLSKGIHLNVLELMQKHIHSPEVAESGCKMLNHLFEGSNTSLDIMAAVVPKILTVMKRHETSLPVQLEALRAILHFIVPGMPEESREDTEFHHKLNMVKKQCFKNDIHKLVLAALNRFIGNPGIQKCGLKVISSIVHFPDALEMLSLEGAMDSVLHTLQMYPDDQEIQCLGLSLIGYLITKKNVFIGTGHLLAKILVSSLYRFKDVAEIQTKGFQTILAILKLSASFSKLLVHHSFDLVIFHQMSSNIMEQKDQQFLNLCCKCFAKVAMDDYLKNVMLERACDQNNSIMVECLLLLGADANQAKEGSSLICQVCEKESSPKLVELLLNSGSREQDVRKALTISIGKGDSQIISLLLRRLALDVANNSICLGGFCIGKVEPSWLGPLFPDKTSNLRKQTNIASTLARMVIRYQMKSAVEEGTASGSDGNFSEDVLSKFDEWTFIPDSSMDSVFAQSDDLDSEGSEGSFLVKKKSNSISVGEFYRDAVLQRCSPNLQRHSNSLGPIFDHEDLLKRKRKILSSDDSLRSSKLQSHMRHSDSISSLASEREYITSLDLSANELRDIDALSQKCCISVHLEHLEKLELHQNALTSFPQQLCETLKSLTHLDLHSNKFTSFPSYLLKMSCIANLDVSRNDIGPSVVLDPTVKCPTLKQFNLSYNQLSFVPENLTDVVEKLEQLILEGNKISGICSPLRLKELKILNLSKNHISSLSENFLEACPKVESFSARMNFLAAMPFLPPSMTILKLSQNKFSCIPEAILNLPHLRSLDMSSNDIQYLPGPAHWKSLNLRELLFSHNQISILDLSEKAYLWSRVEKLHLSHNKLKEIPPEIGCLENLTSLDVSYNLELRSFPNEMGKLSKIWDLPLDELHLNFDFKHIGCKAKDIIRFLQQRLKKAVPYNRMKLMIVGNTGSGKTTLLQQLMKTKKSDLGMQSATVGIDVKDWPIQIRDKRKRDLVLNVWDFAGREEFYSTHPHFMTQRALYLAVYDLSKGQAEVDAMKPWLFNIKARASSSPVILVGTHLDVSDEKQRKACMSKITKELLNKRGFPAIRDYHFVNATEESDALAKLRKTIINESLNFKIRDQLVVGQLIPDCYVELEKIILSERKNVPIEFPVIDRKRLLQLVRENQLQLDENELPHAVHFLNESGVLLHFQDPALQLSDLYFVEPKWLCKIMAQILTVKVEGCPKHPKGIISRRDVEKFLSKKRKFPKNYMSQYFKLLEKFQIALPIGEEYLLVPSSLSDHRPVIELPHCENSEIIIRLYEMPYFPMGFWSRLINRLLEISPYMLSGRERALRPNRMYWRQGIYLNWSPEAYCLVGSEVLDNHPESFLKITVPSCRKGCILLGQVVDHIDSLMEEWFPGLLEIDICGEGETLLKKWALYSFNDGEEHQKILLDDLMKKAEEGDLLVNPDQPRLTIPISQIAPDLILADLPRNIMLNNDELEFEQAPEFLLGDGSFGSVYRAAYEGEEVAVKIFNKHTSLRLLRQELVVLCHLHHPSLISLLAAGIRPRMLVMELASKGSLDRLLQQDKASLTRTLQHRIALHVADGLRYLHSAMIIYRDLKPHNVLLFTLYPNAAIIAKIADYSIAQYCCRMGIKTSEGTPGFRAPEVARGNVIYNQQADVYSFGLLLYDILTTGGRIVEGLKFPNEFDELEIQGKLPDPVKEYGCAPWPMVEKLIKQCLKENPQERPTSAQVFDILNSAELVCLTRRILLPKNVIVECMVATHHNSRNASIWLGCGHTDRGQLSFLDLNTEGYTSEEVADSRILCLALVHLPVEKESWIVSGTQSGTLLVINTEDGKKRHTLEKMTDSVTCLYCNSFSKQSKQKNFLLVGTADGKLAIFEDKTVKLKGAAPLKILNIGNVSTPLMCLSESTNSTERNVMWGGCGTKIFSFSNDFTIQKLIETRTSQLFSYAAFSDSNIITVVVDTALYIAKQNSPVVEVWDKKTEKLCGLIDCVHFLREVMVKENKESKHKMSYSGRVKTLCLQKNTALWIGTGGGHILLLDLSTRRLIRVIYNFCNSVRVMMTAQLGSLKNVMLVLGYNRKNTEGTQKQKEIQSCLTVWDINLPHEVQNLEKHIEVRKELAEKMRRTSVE

The first test addresses T1, LRRK2 (Homo sapiens, UniProt Q5S007, G2019S).
T1 construct: purchased Invitrogen PV4882 (lot 567054A)
The test can be described thus: In Vitro LRRK2 Assay (LabChip 3000, fluorescently-labeled peptide substrate, ATP). Conditions: Table 9; LRRK2 Ki (micromolar); read-out: LRRK2 Ki (KI). Type of test: biochemical. An outline of the steps: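 LRRK2, fluorescent peptide substrate (diluted to 4 μM before mixing), ATP and compound were incubated 2 h in the dark, then stopped. Phosphorylated and unphosphorylated peptide were separated by capillary electrophoresis and quantified by fluorescence. Ki was fitted with a tight-binding equation including enzyme concentration, S and Km; IC50 or percent inhibition were also reported.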
For `Cc1nn(C2COC2)cc1Nc1ncc(C#N)c(NCC(F)(F)F)n1` [Example 382, 2-(3-methyl-1-(oxetan-3-yl)-1H-pyrazol-4-ylamino)-4-(2,2,2-trifluoroethylamino) pyrimidine-5-carbonitrile], the Ki came out at 66 nM. For the compound `CNc1nc(Nc2cnn(C3CCOCC3)c2C)ncc1C#N` [Example 361, 2-(5-methyl-1-(tetrahydro-2H-pyran-4-yl)-1H-pyrazol-4-ylamino)-4-(methylamino) pyrimidine-5-carbonitrile], the Ki amounted to 8.7 nM. Same read-out and setting: then `COc1nc(Nc2cnn(C)c2C)ncc1C#N` [Example 375, 2-(1,5-dimethyl-1H-pyrazol-4-ylamino)-4-methoxy-pyrimidine-5-carbonitrile], with 145 nM. On the same count and under the same terms, then `CNc1nc(Nc2cnn(C3CCC(F)(F)CC3)c2C)ncc1C#N` [Example 381, 2-(1-(4,4-difluorocyclohexyl)-5-methyl-1H-pyrazol-4-ylamino)-4-(methylamino) pyrimidine-5-carbonitrile], with 11 nM.

The same test, now with this note: Table 10; LRRK2 Ki (micromolar); read-out: LRRK2 Ki (KI).
Regarding `CNc1nc(Nc2cnn(C(C)(C)C(=O)N(C)C)c2C)ncc1C(F)(F)F` [Example 399, N,N,2-trimethyl-2-(5-methyl-4-(4-(methylamino)-5-(trifluoromethyl)pyrimidin-2-ylamino)-1H-pyrazol-1-yl)propanamide], the inhibitory constant (Ki) was 314 nM.

Take `CNc1nc(Nc2cnn(C3(C#N)CCC3)c2C)ncc1C(F)(F)F` [Example 446, 1-[5-Methyl-4-(4-methylamino-5-trifluoromethyl-pyrimidin-2-ylamino)-pyrazol-1-yl]-cyclobutane-carbonitrile]: the inhibition constant (Ki) was determined as 2.4 nM. As for `CCNC(=O)C(C)(C)n1ncc(Nc2ncc(C(F)(F)F)c(NC)n2)c1Cl` [Example 425, 2-(5-chloro-4-(4-(methylamino)-5-(trifluoromethyl)pyrimidin-2-ylamino)-1H-pyrazol-1-yl)-N-ethyl-2-methyl propanamide], the Ki stood at 35.5 nM. For the compound `CNc1nc(Nc2cnn(C3(C#N)CC3)c2Cl)ncc1C(F)(F)F` [Example 422, 1-(5-chloro-4-(4-(methylamino)-5-(trifluoromethyl)pyrimidin-2-ylamino)-1H-pyrazol-1-yl)cyclopropane-carbonitrile], the inhibition constant (Ki) was determined as 2.3 nM. Take `CNc1nc(Nc2cnn(C(C)(C)C(=O)N3CCCC3)c2C)ncc1C(F)(F)F` [Example 400, 2-methyl-2-(5-methyl-4-(4-(methylamino)-5-(trifluoromethyl)pyrimidin-2-ylamino)-1H-pyrazol-1-yl)-1-(pyrrolidin-1-yl)propan-1-one]: the inhibitory constant (Ki) was determined as 404 nM. `CNc1nc(Nc2cn(C(C)(C)C#N)nc2C2CC2)ncc1C(F)(F)F` [Example 419, 2-(3-cyclopropyl-4-(4-(methylamino)-5-(trifluoromethyl)pyrimidin-2-ylamino)-1H-pyrazol-1-yl)-2-methylpropanenitrile]: the inhibition constant (Ki) stood at 1 nM.

The test is the same for the next values; noted with them: read-out: LRRK2 Ki (KI), Table 7.
As for `CNc1nc(Nc2cnn(C)c2OC)ncc1C(F)(F)F` [Example 84, N^2-(5-Methoxy-1-methyl-1H-pyrazol-4-yl)-N^4-methyl-5-trifluoromethyl-pyrimidine-2,4-diamine], the inhibition constant (Ki) amounted to 74.2 nM. With `COc1nc(Nc2cn(CC(C)(C)O)nc2C)ncc1Cl` [Example 23], the Ki came to 27 nM. As for `COCCn1ncc(Nc2ncc(Cl)c(OC)n2)c1C` [Example 20, 5-chloro-4-methoxy-N-(1-(2-methoxyethyl)-5-methyl-1H-pyrazol-4-yl)pyrimidin-2-amine], the inhibitory constant (Ki) is 19 nM.

Regarding `COc1nc(Nc2cn(C(C)C)nc2C)ncc1Cl` [Example 29, 5-Chloro-N-(1-isopropyl-3-methyl-1H-pyrazol-4-yl)-4-methoxy-pyrimidin-2-amine], the inhibitory constant (Ki) was 22 nM. Consider `CNc1nc(Nc2cn(C(C)C)nc2C)ncc1Cl` [Example 31, 5-Chloro-N^2-(1-isopropyl-3-methyl-1H-pyrazol-4-yl)-N^4-methylpyrimidine-2,4-diamine], for which the inhibitory constant (Ki) was 12 nM.

The same test, now with this note: read-out: LRRK2 Ki (KI), Table 8.
As to `CNc1nc(Nc2cnn(C3COC3)c2Cl)ncc1C(F)(F)F` [Example 168, N2-(5-chloro-1-(oxetan-3-yl)-1H-pyrazol-4-yl)-N4-methyl-5-(trifluoromethyl) pyrimidine-2,4-diamine], the Ki is 9.5 nM. Turning to `Cc1c(Nc2ncc(C(F)(F)F)c(NCC3CCOCC3)n2)cnn1C` [Example 232, N2-(1,5-dimethyl-1H-pyrazol-4-yl)-N4-((tetrahydro-2H-pyran-4-yl)methyl)-5-(trifluoromethyl) pyrimidine-2,4-diamine], the Ki came to 9.6 nM.

With `CNc1nc(Nc2cn(C(C)(C)COC)nc2C)ncc1C(F)(F)F` [Example 190, N2-(1-(1-methoxy-2-methylpropan-2-yl)-3-methyl-1H-pyrazol-4-yl)-N4-methyl-5-(trifluoromethyl) pyrimidine-2,4-diamine], the Ki turned out to be 6.9 nM. The same measure, in the same setting: then `CNc1nc(Nc2cnn(C(C)(C)COC)c2C)ncc1C(F)(F)F` [Example 203, N2-(1-(1-methoxy-2-methylpropan-2-yl)-5-methyl-1H-pyrazol-4-yl)-N4-methyl-5-(trifluoromethyl) pyrimidine-2,4-diamine], with 42 nM; and `CNc1nc(Nc2cnn(C3CCN(C)CC3F)c2Cl)ncc1C(F)(F)F` (stereo not drawn) [Example 241, N2-(5-chloro-1-(3-fluoro-1-methylpiperidin-4-yl)-1H-pyrazol-4-yl)-N4-methyl-5-(trifluoromethyl) pyrimidine-2,4-diamine], with 1.8 nM; and `CNc1nc(Nc2cn(-c3ccccn3)nc2C)ncc1C(F)(F)F` [Example 117, N4-methyl-N2-(3-methyl-1-(pyridin-2-yl)-1H-pyrazol-4-yl)-5-(trifluoromethyl) pyrimidine-2,4-diamine], with 6.7 nM. For `CCN1CCC(n2ncc(Nc3ncc(C(F)(F)F)c(NC)n3)c2Cl)C(F)C1` (stereo not drawn) [Example 242, N2-(5-chloro-1-(1-ethyl-3-fluoropiperidin-4-yl)-1H-pyrazol-4-yl)-N4-methyl-5-(trifluoromethyl) pyrimidine-2,4-diamine], the Ki worked out at 2.1 nM.

Take `CCCn1ncc(Nc2ncc(Br)c(NC)n2)c1C` [Example 259, 5-Bromo-N4-methyl-N2-(5-methyl-1-propyl-1H-pyrazol-4-yl)-pyrimidine-2,4-diamine]: the inhibition constant Ki amounted to 5.7 nM.

With `CCNc1nc(Nc2cnn(C3CCN(C(=O)C4CC4)CC3)c2C)ncc1C(F)(F)F` [Example 184, cyclopropyl(4-(4-(4-(ethylamino)-5-(trifluoromethyl)pyrimidin-2-ylamino)-5-methyl-1H-pyrazol-1-yl)piperidin-1-yl)methanone], the Ki stood at 4.7 nM. As to `CNc1nc(Nc2cnn(C[C@H](C)OC)c2C)ncc1C(F)(F)F` [Example 187, (S)-N2-(1-(2-methoxypropyl)-5-methyl-1H-pyrazol-4-yl)-N4-methyl-5-(trifluoromethyl) pyrimidine-2,4-diamine], the inhibition constant (Ki) was determined as 18.8 nM. Still for that read-out and setting: then `CCNc1nc(Nc2cnn(CC(C)(C)C#N)c2Cl)ncc1C(F)(F)F` [Example 318, 3-[5-Chloro-4-(4-ethylamino-5-trifluoromethyl-pyrimidin-2-ylamino)-pyrazol-1-yl]-2,2-dimethyl-propionitrile], with 0.7 nM. `CNc1nc(Nc2cn(CC3(C)COC3)nc2C)ncc1Cl` [Example 114, 5-chloro-N4-methyl-N2-(3-methyl-1-((3-methyloxetan-3-yl)methyl)-1H-pyrazol-4-yl)pyrimidine-2,4-diamine]: the inhibition constant (Ki) was found to be 19 nM. The same measure, in the same setting: then `CNc1nc(Nc2cnn(C)c2C#N)ncc1C(F)(F)F` [Example 215, 1-methyl-4-(4-(methylamino)-5-(trifluoromethyl)pyrimidin-2-ylamino)-1H-pyrazole-5-carbonitrile], with 3.2 nM. As for `CNc1nc(Nc2cnn(C3CCN(C)CC3)c2C)ncc1C(F)(F)F` [Example 210, N4-methyl-N2-(5-methyl-1-(1-methylpiperidin-4-yl)-1H-pyrazol-4-yl)-5-(trifluoromethyl) pyrimidine-2,4-diamine], the Ki turned out to be 7.1 nM. The same measure, in the same setting: next, `CNc1nc(Nc2cn(Cc3ccccn3)nc2C)ncc1C(F)(F)F` [Example 213, N4-methyl-N2-(3-methyl-1-(pyridin-2-ylmethyl)-1H-pyrazol-4-yl)-5-(trifluoromethyl) pyrimidine-2,4-diamine]: 2.9 nM; `CNc1nc(Nc2cn(-c3ncccn3)nc2C)ncc1C(F)(F)F` [Example 128, N4-methyl-N2-(3-methyl-1-(pyrimidin-2-yl)-1H-pyrazol-4-yl)-5-(trifluoromethyl) pyrimidine-2,4-diamine]: 11.4 nM; `CNc1nc(Nc2cn(Cc3cccc(C)n3)nc2C)ncc1C(F)(F)F` [Example 293, N4-Methyl-N2-[3-methyl-1-(6-methyl-pyridin-2-ylmethyl)-1H-pyrazol-4-yl]-5-trifluoromethyl-pyrimidine-2,4-diamine]: 0.6 nM.

On to `CNc1nc(Nc2cn(Cc3ncccn3)nc2C)ncc1C(F)(F)F` [Example 304, N4-Methyl-N2-(3-methyl-1-pyrimidin-2-ylmethyl-1H-pyrazol-4-yl)-5-trifluoromethyl-pyrimidine-2,4-diamine], for which the Ki came out at 5.1 nM.

With `CCNc1nc(Nc2cn(C3COC3)nc2C)ncc1Cl` [Example 98, 5-chloro-N4-ethyl-N2-(3-methyl-1-(oxetan-3-yl)-1H-pyrazol-4-yl)pyrimidine-2,4-diamine], the Ki was found to be 3.1 nM.

For the compound `CNc1nc(Nc2cn([C@@H]3CCN(C4COC4)C3)nc2C)ncc1C(F)(F)F` [Example 204, (R)-N4-methyl-N2-(3-methyl-1-(1-(oxetan-3-yl)pyrrolidin-3-yl)-1H-pyrazol-4-yl)-5-(trifluoromethyl) pyrimidine-2,4-diamine], the inhibition constant Ki turned out to be 29 nM. On the same count and under the same terms, next, `CNc1nc(Nc2cnn(CC3(C)COC3)c2C)ncc1C(F)(F)F` [Example 179, N4-methyl-N2-(5-methyl-1-((3-methyloxetan-3-yl)methyl)-1H-pyrazol-4-yl)-5-(trifluoromethyl) pyrimidine-2,4-diamine]: 9 nM.
